Results: article PMC7744152, “New potent steroid sulphatase inhibitors based on 6-(1-phenyl-1H-1,2,3-triazol-4-yl)naphthalen-2-yl sulphamate derivatives” (Journal of Enzyme Inhibition and Medicinal Chemistry, 2020)

Assays:
Assay type in all cases: biochemical
steroid sulphatase (STS) [1] = molecular target: T1, steroid sulphatase (STS) (Homo sapiens, UniProt P08842); assay: radiolabelled [3H] oestrone sulphate hydrolysis, purified placental STS, […] inhibitor
T1 construct: STS enzyme extracted from human placenta and purified
T1 sequence (P08842 22-583): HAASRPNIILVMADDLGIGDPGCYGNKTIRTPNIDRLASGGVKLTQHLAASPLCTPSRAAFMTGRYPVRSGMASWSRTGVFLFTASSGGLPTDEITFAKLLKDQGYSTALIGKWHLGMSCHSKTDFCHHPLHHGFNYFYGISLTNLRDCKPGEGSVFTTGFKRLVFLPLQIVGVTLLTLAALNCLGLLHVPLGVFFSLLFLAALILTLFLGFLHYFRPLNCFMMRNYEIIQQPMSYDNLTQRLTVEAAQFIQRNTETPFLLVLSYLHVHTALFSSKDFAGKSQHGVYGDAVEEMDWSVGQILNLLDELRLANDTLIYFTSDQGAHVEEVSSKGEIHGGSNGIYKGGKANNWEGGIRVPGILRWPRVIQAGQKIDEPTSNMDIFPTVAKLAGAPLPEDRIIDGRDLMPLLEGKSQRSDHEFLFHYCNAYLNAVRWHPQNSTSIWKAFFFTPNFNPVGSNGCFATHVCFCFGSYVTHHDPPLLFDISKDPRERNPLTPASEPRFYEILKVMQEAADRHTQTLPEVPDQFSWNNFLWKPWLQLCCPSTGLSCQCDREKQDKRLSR

steroid sulphatase (STS) [2] = molecular target: T1, steroid sulphatase (STS); assay: radiolabelled [3H] oestrone sulphate hydrolysis, purified placental STS, […] inhibitor (also MCF-7 cell IC50 […])
steroid sulphatase (STS) [3] = molecular target: T1, steroid sulphatase (STS); assay: as above; remark: listed apart in the source
steroid sulphatase (STS) [4] = molecular target: T1, steroid sulphatase (STS); assay: as above; remark: listed apart in the source

SMILES | remaining activity at 0.5 µM (steroid sulphatase (STS) [1]) [%] | further results
NS(=O)(=O)Oc1ccc2cc(-c3cn(-c4ccc(Cl)cc4)nn3)ccc2c1 [3F, 6-(1-(4-Chlorophenyl)-1H-1,2,3-triazol-4-yl)naphthalen-2-yl sulphamate] | 18.7 | –
NS(=O)(=O)Oc1ccc2cc(-c3cn(-c4cccc(F)c4)nn3)ccc2c1 [3B, 6-(1-(3-Fluorophenyl)-1H-1,2,3-triazol-4-yl)naphthalen-2-yl sulphamate] | 17.4 | –
NS(=O)(=O)Oc1ccc2cc(-c3cn(-c4cc(F)cc(F)c4)nn3)ccc2c1 [3K, 6-(1-(3,5-Difluorophenyl)-1H-1,2,3-triazol-4-yl)naphthalen-2-yl sulphamate] | – | remaining activity at 0.5 µM (steroid sulphatase (STS) [2]): 14%
NS(=O)(=O)Oc1ccc2cc(-c3cn(-c4cccc(Cl)c4)nn3)ccc2c1 [3C, 6-(1-(3-Chlorophenyl)-1H-1,2,3-triazol-4-yl)naphthalen-2-yl sulphamate] | 9.66 | –
NS(=O)(=O)Oc1ccc2cc(-c3cn(-c4ccccc4Cl)nn3)ccc2c1 [3I] | – | remaining activity at 0.5 µM (steroid sulphatase (STS) [3]): 16.9%
NS(=O)(=O)Oc1ccc2cc(-c3cn(-c4ccc(F)c(F)c4F)nn3)ccc2c1 [3L, 6-(1-(2,3,4-Trifluorophenyl)-1H-1,2,3-triazol-4-yl)naphthalen-2-yl sulphamate] | – | remaining activity at 0.5 µM (steroid sulphatase (STS) [4]): 7.98%
NS(=O)(=O)Oc1ccc2cc(-c3cn(-c4cccc(Br)c4)nn3)ccc2c1 [3D, 6-(1-(3-Bromophenyl)-1H-1,2,3-triazol-4-yl)naphthalen-2-yl sulphamate] | 9.62 | –
NS(=O)(=O)Oc1ccc2cc(-c3cn(-c4ccc(Br)cc4)nn3)ccc2c1 [3G, 6-(1-(4-Bromophenyl)-1H-1,2,3-triazol-4-yl)naphthalen-2-yl sulphamate] | 23.1 | –
NS(=O)(=O)Oc1ccc2cc(-c3cn(-c4ccccc4Br)nn3)ccc2c1 [3J, 6-(1-(2-Bromophenyl)-1H-1,2,3-triazol-4-yl)naphthalen-2-yl sulphamate] | 15.9 | –
